Data as given in patent publication EP0550775A1, “Cephalosporin derivatives” (F. HOFFMANN-LA ROCHE AG, priority 1992, dated 1993).
Structures can show the parent of a compound that is named as a salt.

Assays:
Ps. aeruginosa 8780 = experiment: In vitro MIC, Agar Dilution Method; type: cell-based; settings: Pseudomonas aeruginosa, read-out: MIC
Procedure: (§1) In vitro activity of the compounds of the present invention was measured by the Minimum Inhibitory Concentration (MIC) in micrograms/ml utilizing the Agar Dilution Method, which is well known in the art, against a variety of gram-negative and gram-positive organisms.

Staph. aureus 67 = experiment: In vitro MIC, Agar Dilution Method; type: cell-based; settings: Staphylococcus aureus; Staph. aureus 67; agar dilution; read-out: MIC
Procedure: as §1

Str. pyogenes 4 = experiment: In vitro MIC, Agar Dilution Method; type: cell-based; settings: Streptococcus pyogenes; Str. pyogenes 4; agar dilution; read-out: MIC
Procedure: as §1

Enter. cloacae 5699 = experiment: In vitro MIC, Agar Dilution Method; type: cell-based; settings: Enterobacter cloacae; Enter. cloacae 5699; agar dilution; read-out: MIC
Procedure: as §1

Ser. marcescens 1071 = experiment: In vitro MIC, Agar Dilution Method; type: cell-based; settings: Serratia marcescens; Ser. marcescens 1071; agar dilution; read-out: MIC
Procedure: as §1

Staph. aureus ATCC 29213 = experiment: In vitro MIC, Agar Dilution Method; type: cell-based; settings: Staphylococcus aureus, ATCC29213, read-out: MIC
Procedure: as §1

Ser. marcescens SM = experiment: In vitro MIC, Agar Dilution Method; type: cell-based; settings: Serratia marcescens, read-out: MIC
Procedure: as §1

[1] = test system: Ps. aeruginosa ATCC 27853; experiment: In vitro MIC, Agar Dilution Method; type: cell-based; settings: Pseudomonas aeruginosa, ATCC27853, read-out: MIC
Procedure: as §1

Ps. aeruginosa 765 = experiment: In vitro MIC, Agar Dilution Method; type: cell-based; settings: Pseudomonas aeruginosa, read-out: MIC
Procedure: as §1

K. pneumoniae A = experiment: In vitro MIC, Agar Dilution Method; type: cell-based; settings: Klebsiella pneumoniae; K. pneumoniae A; agar dilution; read-out: MIC
Procedure: as §1

Prot. mirabilis 90 = experiment: In vitro MIC, Agar Dilution Method; type: cell-based; settings: Proteus mirabilis; Prot. mirabilis 90; agar dilution; read-out: MIC
Procedure: as §1

Staph. aureus 1059B = experiment: In vitro MIC, Agar Dilution Method; type: cell-based; settings: Staphylococcus aureus, read-out: MIC
Procedure: as §1

Ps. aeruginosa 5712 = experiment: In vitro MIC, Agar Dilution Method; type: cell-based; settings: Pseudomonas aeruginosa, read-out: MIC
Procedure: as §1

Cit. freundi BS-16 = experiment: In vitro MIC, Agar Dilution Method; type: cell-based; settings: read-out: MIC
Procedure: as §1

Prot. vulgaris 1028 BC = experiment: In vitro MIC, Agar Dilution Method; type: cell-based; settings: Proteus vulgaris, read-out: MIC
Procedure: as §1

Staph. aureus 753 = experiment: In vitro MIC, Agar Dilution Method; type: cell-based; settings: Staphylococcus aureus, read-out: MIC
Procedure: as §1

Str. pneumoniae 6301 = experiment: In vitro MIC, Agar Dilution Method; type: cell-based; settings: Streptococcus pneumoniae; Str. pneumoniae 6301; agar dilution; read-out: MIC
Procedure: as §1

Str. faecalis ATCC 29212 = experiment: In vitro MIC, Agar Dilution Method; type: cell-based; settings: Enterococcus faecalis, ATCC29212; Str. faecalis ATCC 29212; agar dilution; read-out: MIC
Procedure: as §1

Staph. aureus Smith = experiment: In vitro MIC, Agar Dilution Method; type: cell-based; settings: Staphylococcus aureus, read-out: MIC
Procedure: as §1

Ps. aeruginosa 18SH = experiment: In vitro MIC, Agar Dilution Method; type: cell-based; settings: Pseudomonas aeruginosa, read-out: MIC
Procedure: as §1

Prot. vulgaris ATCC 6380 = experiment: In vitro MIC, Agar Dilution Method; type: cell-based; settings: Proteus vulgaris, ATCC6380, read-out: MIC
Procedure: as §1

E. coli 257 = experiment: microbe, parasite or virus in culture; type: cell-based; settings: Escherichia coli, agar dilution, read-out: MIC
Procedure: as §1

Enter. cloacae P99 = experiment: microbe, parasite or virus in culture; type: cell-based; settings: Enterobacter cloacae, agar dilution, read-out: MIC
Procedure: as §1

E. coli TEM-1 = experiment: microbe, parasite or virus in culture; type: cell-based; settings: Escherichia coli, agar dilution, read-out: MIC
Procedure: as §1

E. coli ATCC 25922 = experiment: microbe, parasite or virus in culture; type: cell-based; settings: Escherichia coli, ATCC25922, agar dilution, read-out: MIC
Procedure: as §1

[2] = Chemical stability (half-life) in phosphate buffer by HPLC; type: physicochemical; settings: pH 7.4, phosphate buffer (pH7.40; 37°C)
Procedure: Chemical stability (half-life) in phosphate buffer (pH 7.40; 37°C) of some of the compounds of the present invention was determined using high performance liquid chromatography (HPLC). A Hamilton PRP-1 (250 mm x 4.1 mm) column was used with UV detection at 280 nm. The mobile phase used consisted of a 0.01 M solution of tetradecyltrimethylammonium bromide in a mixture of 70% 0.072M phosphate buffer (pH 8.2) and 30% acetonitrile. In some experiments, minor adjustments to the pH and in the acetonitrile concentration were made to improve resolutions.

CCN1CCN(C(=O)N[C@@H](C(=O)N[C@@H]2C(=O)N3C(C(=O)O)=C(CN4CCN(c5cc6c(cc5F)c(=O)c(C(=O)O)cn6C5CC5)CC4)CS[C@H]23)c2ccc(O)cc2)C(=O)C1=O [Compound E, [6R-[6α,7β(R)]]-3-[[4-(3-Carboxy-1-cyclopropyl-6-fluoro-1,4-dihydro-4-oxo-7-quinolinyl)-1-piperazinyl]methyl]-7-[[[[(4-ethyl-2,3-dioxo-1-piperazinyl)carbonyl]amino](4-hydroxyphenyl)acetyl]amino]-8-oxo-5-thia-1-azabicyclo[4.2.0]oct-2-ene-2-carboxylic acid trfluoroacetic acid salt]
MIC (Ps. aeruginosa 8780): 8000 µg/mL | MIC (Staph. aureus 67): 16000 µg/mL | MIC (Str. pyogenes 4): 125 µg/mL | MIC (Enter. cloacae 5699): 125 µg/mL | MIC (Ser. marcescens 1071): 250 µg/mL | MIC (Staph. aureus ATCC 29213): 2000 µg/mL | MIC (Ser. marcescens SM): 250 µg/mL | MIC [1]: 8000 µg/mL | MIC (Ps. aeruginosa 765): 4000 µg/mL | MIC (K. pneumoniae A): 500 µg/mL | MIC (Prot. mirabilis 90): 1000 µg/mL | MIC (Staph. aureus 1059B): 2000 µg/mL | MIC (Ps. aeruginosa 5712): 32000 µg/mL | MIC (Cit. freundi BS-16): 62.5 µg/mL | MIC (Prot. vulgaris 1028 BC): 62.5 µg/mL | MIC (Staph. aureus 753): 2000 µg/mL | MIC (Str. pneumoniae 6301): 125 µg/mL | MIC (Str. faecalis ATCC 29212): 16000 µg/mL | MIC (Staph. aureus Smith): 2000 µg/mL | MIC (Ps. aeruginosa 18SH): 2000 µg/mL | MIC (Prot. vulgaris ATCC 6380): 125 µg/mL | MIC (E. coli 257): ≤ 15.7 µg/mL | MIC (Enter. cloacae P99): ≤ 15.7 µg/mL | MIC (E. coli TEM-1): 31.3 µg/mL | MIC (E. coli ATCC 25922): ≤ 15.7 µg/mL | half-life [2]: 60 h
